Article PMC5610748, “Evaluation of Novel α-(Acyloxy)-α-(Quinolin-4-yl) Acetamides as Antiplasmodial Agents” (Iranian Journal of Pharmaceutical Research : IJPR, 2017)
Read-outs that look alike come from different tables or passages of the source.

How the values were obtained:
[1] = test system: P. falciparum 3D7 chloroquine-sensitive strain; assay: In-vitro antiplasmodial test (Giemsa-stained smears); format: cell-based, Plasmodium falciparum; conditions: read-out: P. falciparum IC50
Method: The P. falciparum 3D7 chloroquine-sensitive strain used throughout the study. In-vitro culture of P. falciparum was carried out according to the method described by previously ([12]-[14]). Briefly, parasites were cultured on human erythrocytes (blood group O^+), provided by the Blood Transfusion Organization (Zanjan, Iran), in RPMI 1640 medium completed with 5% of human AB^+ serum, 0.3 g/100 mL Albumax I, 25 mM HEPES, 19 mM sodium carbonate and 30 µg/mL gentamicin sulfate at pH 7.2. Type O^+ erythrocytes were washed three times with RPMI 1640 and stored at 4 °C.
Parasites were aerated in 25 mL flasks under 3% oxygen, 6% carbon dioxide and 91% nitrogen atmosphere. The medium was changed each day.
Pure compounds were dissolved in DMSO at concentration of 10 mg/mL and diluted with complete malaria culture medium to reach 1 mg/mL before use. Parasites were synchronized to the ring stage by sorbitol method described previously ([15]). From 2-fold dilution series (50-0.39 µg/mL) of compounds prepared in assay medium, 20 µL added to each well of 96-well microtiter plates in triplicate. One hundred eighty µL of synchronous P. falciparum culture (1% parasitemia, 2% hematocrit) added to each well reaching a final volume of 200 µL per well. […] Plates were incubated at 37 °C for 24 h. […] After 24 h incubation, Giemsa stained thin smears were made and parasitemia was confirmed by the numeration of 1000 erythrocytes per slide. Data acquired by counting the erythrocytes in Giemsa stain were imported in Microsoft Excel spreadsheet and IC50 values were calculated from dose-response curves.

[2] = test system: human hepatocellular carcinoma cell line (HepG2); assay: In-vitro cytotoxicity assay (MTT); format: cell-based; conditions: HepG2 cells, 24 h incubation
Method: In drug discovery approaches against malaria, one of the important strategies is the safety of active compounds against human. So, the toxicity of active compounds against P. falciparum was assessed on human hepatocellular carcinoma cell line (HepG2) by using MTT (3-[4,5-dimethylthiazol-2-yl] -2,5 diphenyl tetrazolium bromide) assay ([16]-[17]). The cells were cultured in RPMI 1640 medium enriched with 10% FBS (Fetal Bovine Serum) and incubated at 37 °C with 5% CO2 and 96% humidity. After several subcultures, cells were distributed in 96-well plates at 4,000 cells in 100 µL of culture medium and incubated for 24 h at the same condition to allow attachment of cells to the bottom of wells. Then culture medium removed and 100 µL of two-fold serially diluted concentrations of drug (400-1.56 µg/mL) added to each well in triplicate. Microtiter plates further incubated for 24 h in the same condition. Culture medium without drug was used as negative control. After the incubation time, the drug containing medium discharged and for evaluation of cell survival, 25 µL of MTT solution (4 mg/mL in PBS) added to each well and plates incubated for 3 h (in same condition). Then 100 µL of DMSO added to each well and plates were gently shaken to dissolve the formed formazan crystals. The absorbance of each well measured at 540 nm using an ELISA plate reader (Infinite M200, Tecan). The GI% (Growth Inhibition percent) was calculated using the formula Growth Inhibition% = 100 – […], where ODtest is the mean absorbance of treated cells and ODcontrol is the mean absorbance of a negative control. The cell survival of control assumed 100% and IC50 values generated from dose-response curves for each cell line.

[3] = Plasmodium falciparum, 3D7 chloroquine-sensitive strain, ring-stage synchronized, 24 h incubation, parasitemia by Giemsa smears
[4] = 3D7 chloroquine-sensitive strain, ring-stage synchronized, 24 h incubation, parasitemia by Giemsa smears

IC50 [1, 4] | SMILES | other results
– | CCN(CC)CCCC(C)Nc1ccnc2cc(Cl)ccc12 (stereo not drawn) [CQ, Chloroquine, reference compound] | IC50 ([1]; Plasmodium falciparum, 3D7, 24 h): 0.7 µM
– | O=C(OC(C(=O)NC1CCCCC1)c1ccnc2ccccc12)c1ccccc1 (stereo not drawn) [Compound 1] | IC50 [1, 3]: 1.51 µM; IC50 ([2]; Homo sapiens): 230 µM
4.31 µM | Cc1cccc(C)c1NC(=O)C(OC(=O)c1ccccc1)c1ccnc2ccccc12 (stereo not drawn) [Compound 19] | –
6.95 µM | CC(C)(C)NC(=O)C(OC(=O)c1cccc2ccccc12)c1ccnc2ccccc12 (stereo not drawn) [Compound 18] | –
5.02 µM | O=C(OC(C(=O)NC1CCCCC1)c1ccnc2ccccc12)c1ccc(Cl)cc1 (stereo not drawn) [Compound 4] | –
4.35 µM | CC(C)(C)NC(=O)C(OC(=O)c1ccccc1)c1ccnc2ccccc12 (stereo not drawn) [Compound 11] | –
4.18 µM | Cc1cccc(C)c1NC(=O)C(OC(=O)c1ccc(Cl)cc1)c1ccnc2ccccc12 (stereo not drawn) [Compound 21] | –
3.08 µM | CC(C)(C)NC(=O)C(OC(=O)c1ccc(C#N)cc1)c1ccnc2ccccc12 (stereo not drawn) [Compound 17] | –
5.1 µM | CC(C)(C)NC(=O)C(OC(=O)c1ccc(Br)cc1)c1ccnc2ccccc12 (stereo not drawn) [Compound 16] | –
5.85 µM | CC(C)(C)NC(=O)C(OC(=O)c1ccc(Cl)cc1)c1ccnc2ccccc12 (stereo not drawn) [Compound 13] | –
– | Cc1cccc(C)c1NC(=O)C(OC(=O)c1cccc2ccccc12)c1ccnc2ccccc12 (stereo not drawn) [Compound 22] | IC50 [1, 3]: 1.32 µM; IC50 ([2]; Homo sapiens): 254 µM
2.64 µM | CC(C)(C)c1ccc(C(=O)OC(C(=O)NC2CCCCC2)c2ccnc3ccccc23)cc1 (stereo not drawn) [Compound 2] | IC50 [2]: 191 µM
– | Cc1cccc(C)c1NC(=O)C(OC(=O)c1ccc(C(C)(C)C)cc1)c1ccnc2ccccc12 (stereo not drawn) [Compound 20] | IC50 [1, 3]: 1.37 µM; IC50 ([2]; Homo sapiens): 199 µM
3.5 µM | O=C(OC(C(=O)NC1CCCCC1)c1ccnc2ccccc12)c1ccc(I)cc1 (stereo not drawn) [Compound 8] | –
